Source: patent US20050267182A1, “Urea derivatives as FLT-3 modulators” (Ambit Biosciences Corporation, priority 2003, published 2005)

Molecular target: T1, FLT3 (Homo sapiens, UniProt P36888)
T1 construct: FLT3(DKIN); made in house
T1 sequence (P36888 610-943 limits assumed): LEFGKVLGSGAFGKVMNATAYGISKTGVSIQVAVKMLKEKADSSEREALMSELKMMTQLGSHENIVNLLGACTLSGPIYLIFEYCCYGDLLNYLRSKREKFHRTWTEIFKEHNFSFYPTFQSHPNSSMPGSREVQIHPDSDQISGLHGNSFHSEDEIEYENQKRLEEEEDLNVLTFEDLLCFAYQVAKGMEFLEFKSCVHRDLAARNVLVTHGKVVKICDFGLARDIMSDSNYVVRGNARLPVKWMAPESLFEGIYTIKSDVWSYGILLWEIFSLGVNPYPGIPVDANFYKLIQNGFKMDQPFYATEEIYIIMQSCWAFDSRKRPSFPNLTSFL
Assay: Binding constant (Kd) measurement, phage-displayed kinase competition binding assay
Conditions: FLT3(DKIN) construct
Description: Binding Constant (Kd) Measurements for Small-Molecule-Kinase Interactions
The term “ND” represents non-determined values.

**Q.** How did the “Binding Assay: FLT3(DKIN)” value turn out when `CC(C)(C)c1cc(NC(=O)Nc2ccc(Cl)c(C(F)(F)F)c2)no1` [Compound A1, 1-(5-tert-butylisoxazol-3-yl)-3-(4-chloro-3-(trifluoromethyl)phenyl)urea] was run?
**A.** The value was “+ + +”.

**Q.** For `CC(C)(C)c1cc(NC(=O)Nc2ccccc2)no1` [Compound A2], which “Binding Assay: FLT3(DKIN)” value is on record?
**A.** The value was “+ + + +”.

**Q.** How did the “Binding Assay: FLT3(DKIN)” value turn out when `CC(C)(C)c1cc(NC(=O)Nc2ccc(Cl)cc2Cl)no1` [Compound A7] was run?
**A.** Its value is “+ + +”.

**Q.** Which “Binding Assay: FLT3(DKIN)” value does the source give for `CC(C)c1ccc(NC(=O)Nc2cc(C(C)(C)C)no2)cc1` [Compound A11] here?
**A.** Its value is “+ +”.

**Q.** For `CC(C)(C)c1cc(NC(=O)Nc2ccc(OC(F)F)cc2)no1` [Compound A12], which “Binding Assay: FLT3(DKIN)” value is on record?
**A.** Its value is “+ +”.

**Q.** With `CC(C)(C)c1cc(NC(=O)Nc2ccc(OC(F)(F)F)cc2)on1` [Compound A13] as the compound, how does the “Binding Assay: FLT3(DKIN)” value read?
**A.** Its value is “+ +”.

**Q.** For `CC(C)(C)c1cc(NC(=O)Nc2ccc3cc4ccccc4cc3c2)no1` [Compound A18], which “Binding Assay: FLT3(DKIN)” value is on record?
**A.** The value was “+ + +”.

**Q.** With `CC(C)(C)c1cc(NC(=O)Nc2ccc(-c3ccccc3)cc2)no1` [Compound A23] as the compound, how does the “Binding Assay: FLT3(DKIN)” value read?
**A.** Its value is “+ + + +”.

**Q.** Which “Binding Assay: FLT3(DKIN)” value does the source give for `CC(C)(C)c1cc(NC(=O)Nc2ccc(Oc3ccccc3)cc2)no1` [Compound A24] here?
**A.** The value was “+ + + +”.

**Q.** With `CC(C)c1ccc(NC(=O)Nc2cc(C(C)(C)C)on2)cc1` [Compound A25] as the compound, how does the “Binding Assay: FLT3(DKIN)” value read?
**A.** Its value is “+ +”.

**Q.** For `CC(C)(C)c1cc(NC(=O)Nc2ccc(Cl)cc2)no1` [Compound A27], which “Binding Assay: FLT3(DKIN)” value is on record?
**A.** Its value is “+ + +”.

**Q.** With `COc1ccc(NC(=O)Nc2cc(C(C)(C)C)on2)cc1` [Compound A29] as the compound, how does the “Binding Assay: FLT3(DKIN)” value read?
**A.** Its value is “+ + + +”.

**Q.** For `COc1ccc(NC(=O)Nc2cc(C(C)(C)C)no2)cc1` [Compound A30], which “Binding Assay: FLT3(DKIN)” value is on record?
**A.** The value was “+ + + +”.

**Q.** How did the “Binding Assay: FLT3(DKIN)” value turn out when `CC(C)(C)c1cc(NC(=O)Nc2ccc(O)cc2)no1` [Compound A31] was run?
**A.** Its value is “+ + +”.

**Q.** With `CC(C)(C)c1cc(NC(=O)Nc2ccc(Cl)cc2)on1` [Compound A32] as the compound, how does the “Binding Assay: FLT3(DKIN)” value read?
**A.** Its value is “+ + +”.

**Q.** `Cc1ccc(NC(=O)Nc2cc(C(C)(C)C)on2)cc1` [Compound A33] was tested. Which “Binding Assay: FLT3(DKIN)” value did it give?
**A.** Its value is “+ + + +”.

**Q.** `CC(C)(C)c1cc(NC(=O)Nc2ccccc2)no1` [Compound A34] was tested. Which “Binding Assay: FLT3(DKIN)” value did it give?
**A.** The value was “+ + +”.

**Q.** With `CSc1ccc(NC(=O)Nc2cc(C(C)(C)C)on2)cc1` [Compound A37] as the compound, how does the “Binding Assay: FLT3(DKIN)” value read?
**A.** Its value is “+ + + +”.

**Q.** `CSc1ccc(NC(=O)Nc2cc(C(C)(C)C)no2)cc1` [Compound A39] was tested. Which “Binding Assay: FLT3(DKIN)” value did it give?
**A.** Its value is “+ + +”.

**Q.** With `C[S+]([O-])c1ccc(NC(=O)Nc2cc(C(C)(C)C)on2)cc1` (stereo not drawn) [Compound A46] as the compound, how does the “Binding Assay: FLT3(DKIN)” value read?
**A.** The value was “+ + +”.

**Q.** How did the “Binding Assay: FLT3(DKIN)” value turn out when `CC(C)(C)c1cc(NC(=O)Nc2ccc(F)cc2)no1` [Compound A47] was run?
**A.** Its value is “+ + +”.

**Q.** How did the “Binding Assay: FLT3(DKIN)” value turn out when `CC(C)(C)c1cc(NC(=O)Nc2cccc(Cl)c2)no1` [Compound A48] was run?
**A.** The value was “+ + +”.

**Q.** With `CC(C)(C)c1cc(NC(=O)Nc2cc(C(C)(C)C)on2)on1` [Compound A54] as the compound, how does the “Binding Assay: FLT3(DKIN)” value read?
**A.** The value was “+ + +”.

**Q.** With `COc1cccc(CNC(=O)Nc2cc(C(C)(C)C)on2)c1` [Compound B3] as the compound, how does the “Binding Assay: FLT3(DKIN)” value read?
**A.** The value was “+ + + +”.

**Q.** With `CC(C)(C)c1cc(NC(=O)Nc2ccc(C(=O)O)cc2)no1` [Compound C2] as the compound, how does the “Binding Assay: FLT3(DKIN)” value read?
**A.** Its value is “+ +”.

**Q.** Which “Binding Assay: FLT3(DKIN)” value does the source give for `CC(C)(C)c1cc(NC(=O)Nc2ccc(CC(=O)O)cc2)no1` [Compound C3] here?
**A.** The value was “+ +”.

**Q.** With `Cc1ccc(-n2nc(C(C)(C)C)cc2NC(=O)Nc2ccc(C(C)C)cc2)cc1` [Compound D1, 1-(3-tert-butyl-1-p-tolyl-1H-pyrazol-5-yl)-3-(4-isopropylphenyl)urea] as the compound, how does the “Binding Assay: FLT3(DKIN)” value read?
**A.** The value was “+ +”.

**Q.** `O=C(Nc1ccc(Cl)cc1)Nc1cc(C2CC2)nn1-c1ccccc1` [Compound D2] was tested. Which “Binding Assay: FLT3(DKIN)” value did it give?
**A.** The value was “+ + + +”.

**Q.** With `O=C(Nc1ccc(Cl)cc1)Nc1cc(C2CC2)nn1-c1ccccc1` [Compound D10] as the compound, how does the “Binding Assay: FLT3(DKIN)” value read?
**A.** The value was “+ + +”.

**Q.** How did the “Binding Assay: FLT3(DKIN)” value turn out when `Cn1nc(C(C)(C)C)cc1NC(=O)Nc1ccc(Cl)cc1` [Compound D11] was run?
**A.** Its value is “+ + +”.

**Q.** Which “Binding Assay: FLT3(DKIN)” value does the source give for `CCCCc1ccc(NC(=O)Nc2cc(C(C)(C)C)nn2C)cc1` [Compound D12] here?
**A.** The value was “+ + +”.

**Q.** How did the “Binding Assay: FLT3(DKIN)” value turn out when `CC(C)(C)c1cc(N2CCCN(c3ccc(OCc4ccccc4)cc3)C2=O)on1` [Compound E2] was run?
**A.** Its value is “+ + +”.

**Q.** For `CN1CN(c2ccc(OCc3ccccc3)cc2)C(=O)N(c2cc(C(C)(C)C)on2)C1` [Compound E4], which “Binding Assay: FLT3(DKIN)” value is on record?
**A.** The value was “+ + +”.

**Q.** Which “Binding Assay: FLT3(DKIN)” value does the source give for `COc1ccc(N2CCCN(c3cc(C(C)(C)C)no3)C2=O)cc1` [Compound E5] here?
**A.** Its value is “+ +”.

**Q.** Which Kd does the source give for `CC(C)(C)c1cc(NC(=S)Nc2ccc(N3CCOCC3)cc2)no1` [Compound F1, 1-(5-tert-butylisoxazol-3-yl)-3-(4-morpholinophenyl)thiourea] here?
**A.** Its Kd is > 10 µM.

**Q.** Which “Binding Assay: FLT3(DKIN)” value does the source give for `CC(Oc1ccc(NC(=O)Nc2cc(C(C)(C)C)on2)cc1)c1ccccc1` (stereo not drawn) [Compound G17] here?
**A.** The value was “+ + + +”.

**Q.** `CC(C)(C)c1cc(NC(=O)Nc2ccc(OCc3c(Cl)cccc3Cl)cc2)no1` [Compound G19] was tested. Which “Binding Assay: FLT3(DKIN)” value did it give?
**A.** Its value is “+ + + +”.

**Q.** With `CC(C)(C)c1cc(NC(=O)Nc2ccc(OCC(O)CO)cc2)no1` (stereo not drawn) [Compound G28] as the compound, how does the “Binding Assay: FLT3(DKIN)” value read?
**A.** The value was “+ + + +”.

**Q.** With `Cc1cc(NC(=O)Nc2ccc(OCc3ccccc3)cc2)n(-c2ccccc2)n1` [Compound H4] as the compound, how does the “Binding Assay: FLT3(DKIN)” value read?
**A.** The value was “+ + +”.

**Q.** Which “Binding Assay: FLT3(DKIN)” value does the source give for `Cc1ccc(-n2nc(C(C)(C)C)cc2NC(=O)Nc2ccc(OCc3ccccc3)cc2)cc1` [Compound H5] here?
**A.** Its value is “+ + + +”.

**Q.** `Cn1nc(C2CC2)cc1NC(=O)Nc1ccc(OCc2ccccc2)cc1` [Compound H7] was tested. Which “Binding Assay: FLT3(DKIN)” value did it give?
**A.** Its value is “+ +”.

**Q.** `O=C(Nc1ccc(OCc2ccccc2)cc1)Nc1cc(C2CC2)nn1-c1ccccc1` [Compound H8] was tested. Which “Binding Assay: FLT3(DKIN)” value did it give?
**A.** Its value is “+ + +”.

**Q.** `Cc1ccc(-n2nc(C(C)(C)C)cc2NC(=O)Nc2cc(C(C)(C)C)on2)cc1` [Compound H11] was tested. Which “Binding Assay: FLT3(DKIN)” value did it give?
**A.** Its value is “+ + + +”.

**Q.** For `Cc1ccc(-n2nc(C(C)(C)C)cc2NC(=O)Nc2ccc(O)cc2)cc1` [Compound H12], which “Binding Assay: FLT3(DKIN)” value is on record?
**A.** Its value is “+ + +”.

**Q.** With `Cc1ccc(-n2nc(C(C)(C)C)cc2NC(=O)Nc2ccc(Cl)cc2)cc1` [Compound H14] as the compound, how does the “Binding Assay: FLT3(DKIN)” value read?
**A.** Its value is “+ + + +”.

**Q.** `COc1ccc(NC(=O)Nc2cc(C(C)(C)C)nn2-c2ccc(C)cc2)cc1` [Compound H15] was tested. Which “Binding Assay: FLT3(DKIN)” value did it give?
**A.** The value was “+ + + +”.

**Q.** For `COc1ccc(N(C)C(=O)N(C)c2cc(C(C)(C)C)no2)cc1` [Compound J8], which Kd is on record?
**A.** Its Kd is > 10 µM.

**Q.** With `COc1ccc(N(C)C(=O)Nc2cc(C(C)(C)C)on2)cc1` [Compound J10] as the compound, how does the “Binding Assay: FLT3(DKIN)” value read?
**A.** The value was “+ + +”.

**Q.** Which “Binding Assay: FLT3(DKIN)” value does the source give for `CCOC(=O)NN(C(=O)Nc1cc(C(C)(C)C)on1)c1ccc(OC)cc1` [Compound J13] here?
**A.** Its value is “+ + +”.

**Q.** Which “Binding Assay: FLT3(DKIN)” value does the source give for `COc1ccc(N(N)C(=O)Nc2cc(C(C)(C)C)on2)cc1` [Compound J14] here?
**A.** The value was “+ + +”.

**Q.** For `CC(C)(C)c1cc(NC(=O)Nc2ccc(OCCN3CCOCC3)c3ccccc23)no1` [Compound K1], which “Binding Assay: FLT3(DKIN)” value is on record?
**A.** Its value is “+ + +”.

**Q.** With `CC(C)(C)c1cc(NC(=O)Nc2ccc(C(N)=O)cc2)no1` [Compound N86] as the compound, how does the “Binding Assay: FLT3(DKIN)” value read?
**A.** The value was “+ + + +”.

**Q.** `CC(C)(C)c1cc(NC(=O)Nc2ccc(C(=O)NCCO)cc2)no1` [Compound N87] was tested. Which “Binding Assay: FLT3(DKIN)” value did it give?
**A.** The value was “+ + +”.

**Q.** How did the “Binding Assay: FLT3(DKIN)” value turn out when `C[C@H](NC(=O)c1ccc(NC(=O)Nc2cc(C(C)(C)C)on2)cc1)c1ccccc1` [Compound N88] was run?
**A.** The value was “+ + +”.

**Q.** With `CC(C)(C)c1cc(NC(=O)Nc2ccc(C(=O)NCc3ccccc3)cc2)no1` [Compound N89] as the compound, how does the “Binding Assay: FLT3(DKIN)” value read?
**A.** Its value is “+ + +”.

**Q.** How did the “Binding Assay: FLT3(DKIN)” value turn out when `CC(C)(C)c1cc(NC(=O)Nc2ccc(NC(=O)C3CCCCC3)cc2)no1` [Compound N91] was run?
**A.** The value was “+ + + +”.

**Q.** Which “Binding Assay: FLT3(DKIN)” value does the source give for `C/C=C/C(=O)Nc1ccc(NC(=O)Nc2cc(C(C)(C)C)on2)cc1` [Compound N93] here?
**A.** The value was “+ + +”.
